pKi: −log10 of the molar value. Calls of active or inactive are those of the source. No cut-off for these calls is given here.
Tests used:
[1] = target: Alpha-1B adrenergic receptor (Homo sapiens, UniProt P35368); assay: GPCRScan assay: inhibition of Alpha1B; design: radioligand conc. used [nm] 0.3 – 1.0, parental cells stable HEK
[2] = NanoBRET assay (AKT3); conditions: Homo sapiens
T47D = assay: CellTiter-Glo luminescent cell viability assay (CTG) with T-47D cells; format: functional, cell-based; conditions: Homo sapiens
[3] = target: Aurora kinase A (Homo sapiens) (UniProt O14965); assay: AURKA (Aurora A) SelectScreen Kinase panel (LifeTechnologies); conditions: Compound concentration 1.0 uM
[4] = target: Cytoplasmic tyrosine-protein kinase BMX (Homo sapiens) (UniProt P51813); assay: BMX SelectScreen Kinase panel (LifeTechnologies); conditions: Compound concentration 1.0 uM
[5] = target: Calcium/calmodulin-dependent protein kinase type 1D (Homo sapiens) (UniProt Q8IU85); assay: CAMK1D (CaMKI delta) SelectScreen Kinase panel (LifeTechnologies); conditions: Compound concentration 1.0 uM
[6] = target: Calcium/calmodulin-dependent protein kinase type IV (Homo sapiens) (UniProt Q16566); assay: CAMK4 (CaMKIV) SelectScreen Kinase panel (LifeTechnologies); conditions: Compound concentration 1.0 uM
[7] = target: Serine/threonine-protein kinase MRCK alpha (Homo sapiens) (UniProt Q5VT25); assay: CDC42 BPA (MRCKA) SelectScreen Kinase panel (LifeTechnologies); conditions: Compound concentration 1.0 uM
[8] = target: Epidermal growth factor receptor (Homo sapiens) (UniProt P00533); assay: EGFR (ErbB1) SelectScreen Kinase panel (LifeTechnologies); conditions: Compound concentration 1.0 uM
[9] = target: Receptor tyrosine-protein kinase erbB-2 (Homo sapiens) (UniProt P04626); assay: ERBB2 (HER2) SelectScreen Kinase panel (LifeTechnologies); conditions: Compound concentration 1.0 uM
[10] = target: G protein-coupled receptor kinase 5 (Homo sapiens) (UniProt P34947); assay: GRK5 SelectScreen Kinase panel (LifeTechnologies); conditions: Compound concentration 1.0 uM
[11] = target: Insulin-like growth factor 1 receptor (Homo sapiens) (UniProt P08069); assay: IGF1R SelectScreen Kinase panel (LifeTechnologies); conditions: Compound concentration 1.0 uM
Sequence of Insulin-like growth factor 1 receptor (Homo sapiens) (P08069 31-736 limits assumed): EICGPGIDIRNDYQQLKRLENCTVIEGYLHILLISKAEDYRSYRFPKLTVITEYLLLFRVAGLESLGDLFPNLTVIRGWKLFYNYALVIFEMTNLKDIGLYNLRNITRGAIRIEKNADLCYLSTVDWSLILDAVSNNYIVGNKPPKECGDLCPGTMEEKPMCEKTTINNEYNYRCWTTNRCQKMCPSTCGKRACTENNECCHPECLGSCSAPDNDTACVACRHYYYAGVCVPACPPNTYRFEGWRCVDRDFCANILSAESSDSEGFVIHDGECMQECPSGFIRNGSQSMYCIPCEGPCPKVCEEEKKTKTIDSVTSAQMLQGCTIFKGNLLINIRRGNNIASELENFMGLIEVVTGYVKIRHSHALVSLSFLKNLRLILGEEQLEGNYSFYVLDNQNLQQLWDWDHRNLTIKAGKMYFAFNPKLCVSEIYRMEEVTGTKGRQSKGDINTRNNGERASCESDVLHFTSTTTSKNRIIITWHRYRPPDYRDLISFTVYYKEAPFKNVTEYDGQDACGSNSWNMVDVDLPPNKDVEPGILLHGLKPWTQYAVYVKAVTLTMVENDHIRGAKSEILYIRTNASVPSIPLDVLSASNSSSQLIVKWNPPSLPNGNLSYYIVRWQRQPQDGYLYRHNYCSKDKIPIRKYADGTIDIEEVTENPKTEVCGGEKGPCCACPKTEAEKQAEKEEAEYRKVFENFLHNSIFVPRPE
Sequence of Insulin-like growth factor 1 receptor (Homo sapiens) (P08069 741-1367 limits assumed): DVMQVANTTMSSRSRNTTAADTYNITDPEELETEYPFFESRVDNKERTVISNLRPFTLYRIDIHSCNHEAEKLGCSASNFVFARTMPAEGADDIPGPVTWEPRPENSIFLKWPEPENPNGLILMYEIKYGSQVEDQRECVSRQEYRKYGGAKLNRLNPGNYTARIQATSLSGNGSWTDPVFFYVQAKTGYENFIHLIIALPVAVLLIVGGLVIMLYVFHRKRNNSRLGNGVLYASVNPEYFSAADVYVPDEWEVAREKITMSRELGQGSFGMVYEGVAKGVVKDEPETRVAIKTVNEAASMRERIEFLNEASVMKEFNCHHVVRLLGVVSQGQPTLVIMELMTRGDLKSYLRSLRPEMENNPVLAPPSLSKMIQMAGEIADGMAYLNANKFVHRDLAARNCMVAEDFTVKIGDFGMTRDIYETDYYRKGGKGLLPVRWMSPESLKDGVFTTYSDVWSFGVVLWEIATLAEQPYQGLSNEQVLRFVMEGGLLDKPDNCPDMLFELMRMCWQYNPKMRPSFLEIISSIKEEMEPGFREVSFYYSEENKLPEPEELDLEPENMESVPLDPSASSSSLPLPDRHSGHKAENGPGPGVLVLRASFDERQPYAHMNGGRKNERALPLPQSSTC

[12] = target: Tyrosine-protein kinase Lck (Homo sapiens) (UniProt P06239); assay: LCK SelectScreen Kinase panel (LifeTechnologies); conditions: Compound concentration 1.0 uM
[13] = target: Mitogen-activated protein kinase kinase kinase kinase 5 (Homo sapiens) (UniProt Q9Y4K4); assay: MAP4K5 (KHS1) SelectScreen Kinase panel (LifeTechnologies); conditions: Compound concentration 1.0 uM
Sequence of Mitogen-activated protein kinase kinase kinase kinase 5 (Homo sapiens) (Q9Y4K4 whole entry, looked up): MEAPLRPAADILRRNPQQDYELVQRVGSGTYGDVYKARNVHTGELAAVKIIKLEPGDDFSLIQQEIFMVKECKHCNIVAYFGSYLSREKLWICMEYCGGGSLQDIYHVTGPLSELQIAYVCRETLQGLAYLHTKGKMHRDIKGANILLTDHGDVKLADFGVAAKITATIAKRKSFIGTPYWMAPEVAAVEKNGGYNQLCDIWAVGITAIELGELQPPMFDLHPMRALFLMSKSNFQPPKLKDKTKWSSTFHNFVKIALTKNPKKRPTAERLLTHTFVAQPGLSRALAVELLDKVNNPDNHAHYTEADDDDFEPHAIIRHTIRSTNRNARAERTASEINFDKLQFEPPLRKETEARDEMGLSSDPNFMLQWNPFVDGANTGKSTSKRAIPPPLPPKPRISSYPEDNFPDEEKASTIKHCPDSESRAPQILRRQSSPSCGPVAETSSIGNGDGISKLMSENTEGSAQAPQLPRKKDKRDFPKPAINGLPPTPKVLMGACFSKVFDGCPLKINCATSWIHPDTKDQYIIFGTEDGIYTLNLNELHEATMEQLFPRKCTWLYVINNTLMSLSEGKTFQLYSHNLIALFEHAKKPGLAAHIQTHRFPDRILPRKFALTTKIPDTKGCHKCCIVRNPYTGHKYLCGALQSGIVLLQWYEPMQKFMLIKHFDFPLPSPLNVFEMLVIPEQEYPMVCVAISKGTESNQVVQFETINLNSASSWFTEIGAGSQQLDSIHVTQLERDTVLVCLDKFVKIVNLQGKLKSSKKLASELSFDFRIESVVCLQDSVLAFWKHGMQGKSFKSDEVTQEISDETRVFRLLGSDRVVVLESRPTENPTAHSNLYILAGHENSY

[14] = target: MAP kinase-activated protein kinase 3 (Homo sapiens) (UniProt Q16644); assay: MAPKAPK3 SelectScreen Kinase panel (LifeTechnologies); conditions: Compound concentration 1.0 uM
[15] = target: Serine/threonine-protein kinase MARK1 (Homo sapiens) (UniProt Q9P0L2); assay: MARK1 (MARK) SelectScreen Kinase panel (LifeTechnologies); conditions: Compound concentration 1.0 uM
[16] = target: Serine/threonine-protein kinase PLK1 (Homo sapiens) (UniProt P53350); assay: PLK1 SelectScreen Kinase panel (LifeTechnologies); conditions: Compound concentration 1.0 uM
[17] = target: Protein kinase C delta type (Homo sapiens) (UniProt Q05655); assay: PRKCD (PKC delta) SelectScreen Kinase panel (LifeTechnologies); conditions: Compound concentration 1.0 uM
Sequence of Protein kinase C delta type (Homo sapiens) (Q05655 whole entry, looked up): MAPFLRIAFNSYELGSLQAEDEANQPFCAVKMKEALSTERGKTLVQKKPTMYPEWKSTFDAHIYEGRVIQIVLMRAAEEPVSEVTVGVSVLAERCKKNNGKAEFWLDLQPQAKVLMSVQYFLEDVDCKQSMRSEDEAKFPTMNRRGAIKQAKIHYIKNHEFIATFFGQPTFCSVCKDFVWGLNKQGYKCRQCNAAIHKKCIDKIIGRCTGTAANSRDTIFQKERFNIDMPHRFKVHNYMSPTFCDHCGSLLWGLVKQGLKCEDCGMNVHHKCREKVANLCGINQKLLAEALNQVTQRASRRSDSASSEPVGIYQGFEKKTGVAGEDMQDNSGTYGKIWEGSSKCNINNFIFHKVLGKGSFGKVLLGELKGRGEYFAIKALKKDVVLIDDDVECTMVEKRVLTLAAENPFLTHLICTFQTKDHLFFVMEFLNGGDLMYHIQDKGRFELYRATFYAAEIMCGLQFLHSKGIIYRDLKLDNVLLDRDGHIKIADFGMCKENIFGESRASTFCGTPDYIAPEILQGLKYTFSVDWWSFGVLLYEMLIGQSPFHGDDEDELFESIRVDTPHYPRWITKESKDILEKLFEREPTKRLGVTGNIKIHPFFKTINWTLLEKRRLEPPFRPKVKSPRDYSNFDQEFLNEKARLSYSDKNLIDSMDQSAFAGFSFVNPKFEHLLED

[18] = target: Protein kinase C epsilon type (Homo sapiens) (UniProt Q02156); assay: PRKCE (PKC epsilon) SelectScreen Kinase panel (LifeTechnologies); conditions: Compound concentration 1.0 uM
[19] = target: Protein kinase C gamma type (Homo sapiens) (UniProt P05129); assay: PRKCG (PKC gamma) SelectScreen Kinase panel (LifeTechnologies); conditions: Compound concentration 1.0 uM
[20] = target: Protein kinase C eta type (Homo sapiens) (UniProt P24723); assay: PRKCH (PKC eta) SelectScreen Kinase panel (LifeTechnologies); conditions: Compound concentration 1.0 uM
Sequence of Protein kinase C eta type (Homo sapiens) (P24723 whole entry): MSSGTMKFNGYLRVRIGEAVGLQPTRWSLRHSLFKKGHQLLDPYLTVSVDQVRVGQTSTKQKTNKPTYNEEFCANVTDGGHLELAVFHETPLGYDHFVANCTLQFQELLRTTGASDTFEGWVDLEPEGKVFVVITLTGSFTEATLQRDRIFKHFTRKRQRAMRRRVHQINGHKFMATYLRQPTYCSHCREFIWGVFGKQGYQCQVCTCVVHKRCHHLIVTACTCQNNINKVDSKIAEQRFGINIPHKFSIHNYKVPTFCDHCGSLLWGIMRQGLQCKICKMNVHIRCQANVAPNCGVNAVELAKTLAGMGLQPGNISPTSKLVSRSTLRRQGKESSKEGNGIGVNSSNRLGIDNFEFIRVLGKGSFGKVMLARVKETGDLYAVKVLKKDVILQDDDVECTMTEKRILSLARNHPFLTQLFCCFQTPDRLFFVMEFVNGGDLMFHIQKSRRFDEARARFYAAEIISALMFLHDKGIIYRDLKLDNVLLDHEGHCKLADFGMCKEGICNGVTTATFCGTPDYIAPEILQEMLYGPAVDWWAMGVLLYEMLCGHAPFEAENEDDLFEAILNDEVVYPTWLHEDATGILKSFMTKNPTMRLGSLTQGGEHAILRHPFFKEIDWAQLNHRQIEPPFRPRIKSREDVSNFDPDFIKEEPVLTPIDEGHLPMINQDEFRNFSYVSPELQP

[21] = target: Protein kinase C zeta type (Homo sapiens) (UniProt Q05513); assay: PRKCZ (PKC zeta) SelectScreen Kinase panel (LifeTechnologies); conditions: Compound concentration 1.0 uM
[22] = target: Serine/threonine-protein kinase D2 (Homo sapiens) (UniProt Q9BZL6); assay: PRKD2 (PKD2) SelectScreen Kinase panel (LifeTechnologies); conditions: Compound concentration 1.0 uM
[23] = target: cGMP-dependent protein kinase 1 (Homo sapiens) (UniProt Q13976); assay: PRKG1 SelectScreen Kinase panel (LifeTechnologies); conditions: Compound concentration 1.0 uM
[24] = target: Proto-oncogene tyrosine-protein kinase receptor Ret (Homo sapiens) (UniProt P07949); assay: RET SelectScreen Kinase panel (LifeTechnologies); conditions: Compound concentration 1.0 uM
[25] = target: Rho-associated protein kinase 1 (Homo sapiens) (UniProt Q13464); assay: ROCK1 SelectScreen Kinase panel (LifeTechnologies); conditions: Compound concentration 1.0 uM
[26] = target: Ribosomal protein S6 kinase alpha-6 (Homo sapiens) (UniProt Q9UK32); assay: RPS6KA6 (RSK4) SelectScreen Kinase panel (LifeTechnologies); conditions: Compound concentration 1.0 uM
[27] = target: Proto-oncogene tyrosine-protein kinase Src (Homo sapiens) (UniProt P12931); assay: SRC SelectScreen Kinase panel (LifeTechnologies); conditions: Compound concentration 1.0 uM
[28] = target: Serine/threonine-protein kinase 4 (Homo sapiens) (UniProt Q13043); assay: STK4 (MST1) SelectScreen Kinase panel (LifeTechnologies); conditions: Compound concentration 1.0 uM
[29] = target: Tyrosine-protein kinase TXK (Homo sapiens) (UniProt P42681); assay: TXK SelectScreen Kinase panel (LifeTechnologies); conditions: Compound concentration 1.0 uM
[30] = target: 5-hydroxytryptamine receptor 1D (Homo sapiens) (UniProt P28221); conditions: Compound concentration 10.0 uM
Sequence of 5-hydroxytryptamine receptor 1D (Homo sapiens) (P28221 whole entry): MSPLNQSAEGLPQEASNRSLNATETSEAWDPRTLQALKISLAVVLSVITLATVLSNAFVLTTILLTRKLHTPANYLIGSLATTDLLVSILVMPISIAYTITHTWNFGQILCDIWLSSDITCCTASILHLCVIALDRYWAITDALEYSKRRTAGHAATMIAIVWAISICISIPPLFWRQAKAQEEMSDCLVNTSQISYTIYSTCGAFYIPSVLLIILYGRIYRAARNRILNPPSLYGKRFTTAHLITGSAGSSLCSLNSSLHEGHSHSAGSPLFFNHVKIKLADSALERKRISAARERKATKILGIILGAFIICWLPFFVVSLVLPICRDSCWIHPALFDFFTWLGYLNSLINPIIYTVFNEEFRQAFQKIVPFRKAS

[31] = target: 5-hydroxytryptamine receptor 3A (Homo sapiens) (UniProt P46098); conditions: Compound concentration 10.0 uM
[32] = target: 5-hydroxytryptamine receptor 5A (Homo sapiens) (UniProt P47898); conditions: Compound concentration 10.0 uM
[33] = target: 5-hydroxytryptamine receptor 6 (Homo sapiens) (UniProt P50406); conditions: Compound concentration 10.0 uM
[34] = target: D(1A) dopamine receptor (Homo sapiens) (UniProt P21728); conditions: Compound concentration 10.0 uM
[35] = target: Sodium-dependent noradrenaline transporter (Homo sapiens) (UniProt P23975); conditions: Compound concentration 10.0 uM
[36] = target: Sodium-dependent dopamine transporter (Homo sapiens, UniProt Q01959); conditions: Compound concentration 10.0 uM
Histamine H2 receptor = Histamine H2 receptor (Homo sapiens, UniProt P25021); conditions: Compound concentration 10.0 uM
[37] = target: Alpha-2C adrenergic receptor (Homo sapiens) (UniProt P18825); conditions: Compound concentration 10.0 uM
[38] = target: Muscarinic acetylcholine receptor M1 (Homo sapiens) (UniProt P11229); conditions: Compound concentration 10.0 uM
Sequence of Muscarinic acetylcholine receptor M1 (Homo sapiens) (P11229 whole entry): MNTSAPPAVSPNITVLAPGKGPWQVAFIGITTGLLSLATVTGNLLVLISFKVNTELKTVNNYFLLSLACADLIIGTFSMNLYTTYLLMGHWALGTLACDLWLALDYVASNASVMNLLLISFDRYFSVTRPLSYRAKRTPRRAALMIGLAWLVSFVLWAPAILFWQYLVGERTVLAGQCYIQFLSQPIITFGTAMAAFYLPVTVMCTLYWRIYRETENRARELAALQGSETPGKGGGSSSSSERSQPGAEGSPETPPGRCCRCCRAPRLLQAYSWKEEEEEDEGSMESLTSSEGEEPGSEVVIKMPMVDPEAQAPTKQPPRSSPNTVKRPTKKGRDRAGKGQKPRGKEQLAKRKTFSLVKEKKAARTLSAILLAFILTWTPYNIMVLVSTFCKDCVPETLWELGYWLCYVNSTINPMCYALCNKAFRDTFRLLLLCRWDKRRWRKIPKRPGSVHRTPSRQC

[39] = target: Muscarinic acetylcholine receptor M2 (Homo sapiens) (UniProt P08172); conditions: Compound concentration 10.0 uM
[40] = target: Muscarinic acetylcholine receptor M5 (Homo sapiens) (UniProt P08912); conditions: Compound concentration 10.0 uM
Sequence of Muscarinic acetylcholine receptor M5 (Homo sapiens) (P08912 whole entry): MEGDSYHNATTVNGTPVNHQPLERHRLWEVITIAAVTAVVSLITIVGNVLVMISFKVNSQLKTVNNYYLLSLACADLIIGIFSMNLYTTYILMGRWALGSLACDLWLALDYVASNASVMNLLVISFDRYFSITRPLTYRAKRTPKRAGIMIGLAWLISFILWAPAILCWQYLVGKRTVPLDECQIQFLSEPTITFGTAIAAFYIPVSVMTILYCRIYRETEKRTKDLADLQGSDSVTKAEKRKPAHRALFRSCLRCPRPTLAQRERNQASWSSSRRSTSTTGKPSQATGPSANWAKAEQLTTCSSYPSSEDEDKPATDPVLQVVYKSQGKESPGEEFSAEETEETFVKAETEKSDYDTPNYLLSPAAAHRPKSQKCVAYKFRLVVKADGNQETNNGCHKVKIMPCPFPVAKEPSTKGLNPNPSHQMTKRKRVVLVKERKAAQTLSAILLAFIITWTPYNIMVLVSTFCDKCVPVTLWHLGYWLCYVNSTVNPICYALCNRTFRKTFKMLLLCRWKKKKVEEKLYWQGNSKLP

[41] = target: Sigma intracellular receptor 2 (Homo sapiens) (UniProt Q5BJF2); conditions: Compound concentration 10.0 uM
[42] = target: Ephrin type-B receptor 4 (Homo sapiens) (UniProt P54760); assay: EPHB4 SelectScreen Kinase panel (LifeTechnologies); conditions: Compound concentration 1.0 uM
[43] = target: MAP kinase-interacting serine/threonine-protein kinase 1 (Homo sapiens) (UniProt Q9BUB5); assay: MKNK1 (MNK1) SelectScreen Kinase panel (LifeTechnologies); conditions: Compound concentration 1.0 uM

For `C=CC(=O)Nc1ccc2[nH]c(=O)n(C3CCN(Cc4ccc(-c5nc6cc[nH]c(=O)c6cc5-c5ccccc5)cc4)CC3)c2c1` [Borussertib], the pKi [1] was 5.37, the EC50 [2] was 0.029 µM (active) and the IC50 [2] was 4.3 µM (not active). The EC50 (T47D) was 0.05 µM (active), the inhibition [3] was 15% and the inhibition [4] was 7%. It also gave an inhibition [5] of 9%, an inhibition [6] of 12% and an inhibition [7] of 2%. For the same compound, the inhibition [8] was 2%, the inhibition [9] was -3% and the inhibition [10] was -2%. The inhibition [11] was -4%, the inhibition [12] was 8% and the inhibition [13] was 37%. For the same compound, the inhibition [14] was 17%, the inhibition [15] was -7% and the inhibition [16] was -3%. It also gave an inhibition [17] of -8%, an inhibition [18] of -1% and an inhibition [19] of 17%. It also gave an inhibition [20] of -2%, an inhibition [21] of -1% and an inhibition [22] of 5%. The inhibition [23] was 5%, the inhibition [24] was 7% and the inhibition [25] was 9%. For the same compound, the inhibition [26] was 14%, the inhibition [27] was 10% and the inhibition [28] was -1%. The inhibition [29] was 8%, the inhibition [30] was 12.1% and the inhibition [31] was 30.2%. It also gave an inhibition [32] of 19.4%, an inhibition [33] of -3.73% and an inhibition [34] of 19.2%. It also gave an inhibition [35] of 4.49%, an inhibition [36] of 59.7% and an inhibition (Histamine H2 receptor) of 65.1%. The inhibition [37] was -7.2%, the inhibition [38] was -8.04% and the inhibition [39] was 3.07%. It also gave an inhibition [40] of 11.8%, an inhibition [41] of 24.8% and an inhibition [42] of 7%. It also gave an inhibition [43] of 8%.
